These results are taken from US7241760B2, “Heteroaryl-substituted imidazole derivatives” (Hoffmann-La Roche Inc., priority 2003, dated 2007).

In the assay the target is T1, human mGlu 5a receptor (Homo sapiens, UniProt P41594).
T1 construct: expressed in transfected cells; host or cells: EBNA cells (transient transfection); cell membrane homogenates
Kind of assay: [3H]MPEP competition binding on membranes of EBNA cells transfected with human mGlu 5a receptor. As to conditions: competition with [3H]MPEP (2 nM), 1 h at 4° C., membranes of transiently transfected EBNA cells; Ki=IC50/[1+L/Kd]. The procedure:
For binding experiments, cDNA encoding human mGlu 5a receptor was transiently transfected into EBNA cells using a procedure described by Schlaeger and Christensen [Cytotechnology 15:1–13 (1998)]. Cell membrane homogenates were stored at −80° C. until the day of assay where upon they were thawed and resuspended and polytronised in 15 mM Tris-HCl, 120 mM NaCl, 100 mM KCl, 25 mM CaCl2, 25 mM MgCl2 binding buffer at pH 7.4 to a final assay concentration of 20 μg protein/well.
Saturation isotherms were determined by addition of twelve [^3H]MPEP concentrations (0.04–100 nM) to these membranes (in a total volume of 200 μl) for 1 h at 4° C. Competition experiments were performed with a fixed concentration of [^3H]MPEP (2 nM) and IC50 values of test compounds evaluated using 11 concentrations (0.3–10,000 nM). Incubations were performed for 1 h at 4° C.
At the end of the incubation, membranes were filtered onto unifilter (96-well white microplate with bonded GF/C filter preincubated 1 h in 0.1% PEI in wash buffer, Packard BioScience, Meriden, Conn.) with a Filtermate 96 harvester (Packard BioScience) and washed 3 times with cold 50 mM Tris-HCl, pH 7.4 buffer. Nonspecific binding was measured in the presence of 10 μM MPEP. The radioactivity on the filter was counted (3 min) on a Packard Top-count microplate scintillation counter with quenching correction after addition of 45 μl of microscint 40 (Can berra Packard S. A., Zürich, Switzerland) and shaking for 20 min. For functional assays, [Ca^2+]i measurements were performed as described previously by Porter et al. [Br. J. Pharmacol. 128:13–20 (1999)] on recombinant human mGlu 5a receptors in HEK-293 cells. The cells were dye loaded using Fluo 4-AM (obtainable by FLUKA, 0.2 μM final concentration). [Ca^2+]i measurements were performed using a fluorometric imaging plate reader (FLIPR, Molecular Devices Corporation, La Jolla, Calif., USA). Antagonist evaluation was performed following a 5 min preincubation with the test compounds followed by the addition of a submaximal addition of agonist.
The inhibition (antagonists) curves were fitted with a four parameter logistic equation giving IC50, and Hill coefficient using an iterative non linear curve fitting software (Xcel fit).
For binding experiments the Ki values of the compounds tested are given. The Ki value is defined by the following formula: Ki=IC50/[1+L/Kd] in which the IC50 values are those concentrations of the compounds tested which cause 50% inhibition of the competing radioligand ([^3H]MPEP). L is the concentration of radioligand used in the binding experiment and the Kd value of the radioligand is empirically determined for each batch of membranes prepared.

Molecules are shown by their SMILES. pKi: −log10 of the molar value.

T1 sequence (P41594 21-1180 isoform P41594-2 limits assumed): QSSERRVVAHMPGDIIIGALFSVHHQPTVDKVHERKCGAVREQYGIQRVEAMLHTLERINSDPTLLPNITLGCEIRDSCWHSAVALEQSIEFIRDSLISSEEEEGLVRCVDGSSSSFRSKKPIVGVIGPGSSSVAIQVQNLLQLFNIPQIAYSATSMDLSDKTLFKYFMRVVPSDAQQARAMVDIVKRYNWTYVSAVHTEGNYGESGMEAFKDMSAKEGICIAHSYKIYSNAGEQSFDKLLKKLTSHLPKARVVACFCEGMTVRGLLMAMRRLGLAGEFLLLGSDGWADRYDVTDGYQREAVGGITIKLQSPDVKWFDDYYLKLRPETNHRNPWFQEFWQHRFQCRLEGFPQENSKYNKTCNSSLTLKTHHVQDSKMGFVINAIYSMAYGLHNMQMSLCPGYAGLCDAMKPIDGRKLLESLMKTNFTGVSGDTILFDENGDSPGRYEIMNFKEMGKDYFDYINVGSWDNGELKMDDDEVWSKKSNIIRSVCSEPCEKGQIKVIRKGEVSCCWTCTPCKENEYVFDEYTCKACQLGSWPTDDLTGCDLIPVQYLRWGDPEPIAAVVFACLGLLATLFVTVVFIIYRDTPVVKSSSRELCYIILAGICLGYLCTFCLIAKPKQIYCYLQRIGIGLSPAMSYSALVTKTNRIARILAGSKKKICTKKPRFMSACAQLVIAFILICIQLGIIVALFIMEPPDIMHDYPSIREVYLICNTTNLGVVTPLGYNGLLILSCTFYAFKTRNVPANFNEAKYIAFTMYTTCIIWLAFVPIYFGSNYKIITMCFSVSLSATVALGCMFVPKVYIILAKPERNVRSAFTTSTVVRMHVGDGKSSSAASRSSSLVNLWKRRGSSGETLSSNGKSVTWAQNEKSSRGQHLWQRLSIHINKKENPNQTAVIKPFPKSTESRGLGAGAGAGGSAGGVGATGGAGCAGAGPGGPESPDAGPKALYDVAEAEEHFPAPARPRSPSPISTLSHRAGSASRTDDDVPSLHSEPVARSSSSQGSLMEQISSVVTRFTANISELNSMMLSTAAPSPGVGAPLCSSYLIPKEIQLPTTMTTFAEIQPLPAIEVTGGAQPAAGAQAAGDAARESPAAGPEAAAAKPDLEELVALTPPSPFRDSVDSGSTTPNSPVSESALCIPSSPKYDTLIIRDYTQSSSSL

Regarding `Cc1cc(-n2cc(C#Cc3cccc(Cl)c3)nc2C)cnn1` [Example 8, 5-[4-(3-Chloro-phenylethynyl)-2-methyl-imidazol-1-yl]-3-methyl-pyridazine], the negative logarithm of the Ki (pKi) is 6.80. The same measure for `Cc1nc(C#Cc2cccc(C#N)c2)cn1-c1cncc(N(C)C)c1` [Example 38, 3-[1-(5-Dimethylamino-pyridin-3-yl)-2-methyl-1H-imidazol-4-ylethynyl]-benzonitrile]: 7.00.

`Cc1nc(C#Cc2cccc(Cl)c2)cn1-c1cccc(N2CCS(=O)(=O)CC2)n1` [Example 40, 4-{6-[4-(3-Chloro-phenylethynyl)-2-methyl-imidazol-1-yl]-pyridin-2-yl}-thiomorpholine-1,1-dioxide]: the negative-log Ki (pKi) was 7.17. The same measure for `Cc1nc(C#Cc2cccc(Cl)c2)cn1-c1ccc(Cl)nn1` [Example 25, 3-Chloro-6-[4-(3-chloro-phenylethynyl)-2-methyl-imidazol-1-yl]-pyridazine]: 7.49. `Cc1nc(C#Cc2cccc(Cl)c2)cn1-c1ncccn1` [Example 1, 2-[4-(3-Chloro-phenylethynyl)-2-methyl-imidazol-1-yl]-pyrimidine]: the pKi was 7.20.

For `Cc1ccc(-n2cc(C#Cc3cccc(C(F)(F)F)c3)nc2C)nc1` [Example 31, 5-Methyl-2-[2-methyl-4-(3-trifluoromethyl-phenylethynyl)-imidazol-1-yl]-pyridine], the negative-log Ki (pKi) was 7.06.

For `COc1ccc(-n2cc(C#Cc3cccc(Cl)c3)nc2C)nn1` [Example 26, 3-[4-(3-Chloro-phenylethynyl)-2-methyl-imidazol-1-yl]-6-methoxy-pyridazine], the pKi is 7.03.

`Cc1nc(C#Cc2cccc(C#N)c2)cn1-c1cncc(F)c1` [Example 35, 3-[1-(5-Fluoro-pyridin-3-yl)-2-methyl-1H-imidazol-4-ylethynyl]-benzonitrile]: the negative logarithm of the Ki (pKi) is 7.41. The same measure for `Cc1cccc(-n2cc(C#Cc3cccc(C#N)c3)nc2C)n1` [Example 3, 3-[2-Methyl-1-(6-methyl-pyridin-2-yl)-1H-imidazol-4-ylethynyl]-benzonitrile]: 7.51. As to `Cc1nc(C#Cc2cccc(C(F)(F)F)c2)cn1-c1ccc(Cl)nc1` [Example 33, 2-Chloro-5-[2-methyl-4-(3-trifluoromethyl-phenylethynyl)-imidazol-1-yl]-pyridine], the negative logarithm of the Ki (pKi) is 7.18. For `COc1ccnc(-n2cc(C#Cc3cccc(C#N)c3)nc2C)n1` [Example 20, 3-[1-(4-Methoxy-pyrimidin-2-yl)-2-methyl-1H-imidazol-4-ylethynyl]-benzonitrile] the value was 7.96; for `Cc1nc(C#Cc2cccc(Cl)c2)cn1-c1nccc(C(F)(F)F)n1` [Example 2, 2-[4-(3-Chloro-phenylethynyl)-2-methyl-imidazol-1-yl]-4-trifluoromethyl-pyrimidine], 7.55. For `Cc1nc(C#Cc2cccc(C#N)c2)cn1-c1cnccn1` [Example 22, 3-(2-Methyl-1-pyrazin-2-yl-1H-imidazol-4-ylethynyl)-benzonitrile] the value was 7.22. For `Cc1nc(C#Cc2cccc(Cl)c2)cn1-c1ccoc1` [Example 9, 4-(3-Chloro-phenylethynyl)-1-furan-3-yl-2-methyl-1H-imidazole] the value was 7.96; for `Cc1nc(C#Cc2cccc(Cl)c2)cn1-c1cccc(N2CCSCC2)n1` [Example 39, 4-{6-[4-(3-Chloro-phenylethynyl)-2-methyl-imidazol-1-yl]-pyridin-2-yl}-thiomorpholine], 8.05; for `Cc1nc(C#Cc2cccc(Cl)c2)cn1-c1ccc(N(C)C)nn1` [Example 27, {6-[4-(3-Chloro-phenylethynyl)-2-methyl-imidazol-1-yl]-pyridazin-3-yl}-dimethyl-amine], 6.89.

What is called pKi is the negative decadic logarithm of the Ki, by convention in mol/L.
